These results are taken from patent US20060258561A1, “Novel NPH insulin preparations” (Novo Nordisk A/S, priority 2003, published 2006).

Where two headings read alike, the source gives them in different places.

The target in series [1] is T1, R-state His^B10 Zn^2+ site of insulin R6 hexamers (Homo sapiens, UniProt P01308).
T1 construct: human insulin comprising additional amino acids, i.e. more than 51 amino acids
The experiment in a line: TZD-assay: fluorescence displacement of 5-(4-dimethylaminobenzylidene)thiazolidine-2,4-dione from insulin R6 hexamers. It counts as binding. The protocol: However, ligands with substantially higher affinity for the His^B10 Zn^2+-site may be found and characterized by using a fluorescence based competition assay which is based on the displacement of 5-(4-dimethylaminobenzylidene)-thiazolidine-2,4-dione from the R-state His^B10 Zn^2+-site by the incoming ligand in question.
TZD-Assay for Quantitation of Ligands Binding to the R-State His^B10 Zn^2+:
The binding affinity of ligands to the metal site of insulin R6 hexamers are measured in a fluorescense based displacement assay. The fluorescence of 5-(4-dimethylaminobenzylidene)thiazolidine-2,4-dione (TZD) which is a ligand for the metal site of insulin R6 is quenched upon displacement from the metal site to the solution. Titration of a ligand to a stock solution of insulin R6 hexamers with this compound mounted in the metal site allows the binding affinity of these ligands to be determined measuring the fluorescence at 455 nm upon excitation at 410 nm.
Stock solution: 0.02 mM human insulin, 0.007 mM Zn-acetate, 40 mM phenol, 0.01 mM TZD in 50 mM tris buffer adjusted to pH=8.0 with NaOH/ClO4^−.
The ligand is dissolved in DMSO to a concentration of 5 mM and added in aliquots to the stock solution to final concentrations of 0-250 μM.
Fluorescence measurements were carried out on a Perkin Elmer Spectrofluorometer LS50B. The main absorption band was excited at 410 nm and emission was detected at 455 nm. The resolution was 10 nm and 2.5 nm for excitation and emission, respectively.
This equation is fitted to the datapoints ΔF(455 nm))=ΔFmax*[ligand]free/(KD(app)*(1+[TZD]/KTZD)+[ligand]free)) KD(app) is the apparent dissociation constant and Fmax is the fluorescence at maximal ligand concentration. The value of KTZD is measured separately to 230 nM
Two different fitting-procedures can be used. One in which both parameters, KD(app) and Fmax, are adjusted to best fit the data and a second in which the value of Fmax is fixed (Fmax=1) and only KD(app) is adjusted. The given data are from the second fitting procedure. The Solver module of Microsoft Excel can be used to generate the fits from the datapoints.

The nature of series [2]: NPH-insulin crystallisation in the presence of ligand (co-crystallisation). The class given is physicochemical. The settings on record: human insulin NPH crystals grown overnight with ligand equimolar to Zn2+, pH 7.3. The protocol:
Preparation of NPH-insulin in the presence of ligands for the His^B10 Zn^2+-site of the R-state insulin hexamer.
Preparations are prepared by mixing equal volumes of the following two solutions: a) 1.2 mM human insulin, 0.46 mM Zn^2+, 28 mM phosphate, 1.6% glycerol, 0.15% m-cresol, 0.065% phenol, and 0.46 mM ligand for the HisB10 Zn^2+-site (see below), optionally the ligand was added as a 9.2 mM DMSO solution, pH 7.5; and b) 0.636 mg/mL protamine sulphate 1.6% glycerol, 0.15% m-cresol, 0.065% phenol, pH 6. The NPH-crystals grow overnight from the resulting suspension, pH 7.3.

The target in series [3] is T2, metal site of insulin R6 hexamers (Homo sapiens, UniProt P01308).
T2 construct: human insulin comprising additional amino acids, i.e. more than 51 amino acids
The settings on record: taken from Huang et al., 1997, Biochemistry 36, 9878-9888; read-out: K4H3N; cited from earlier work.

Setting [4] is: human insulin R6 hexamers, 40 mM phenol, tris pH 8.0, apparent KD, fit with Fmax fixed, read-out: Kd as observed in the 5-(4-imethylaminobenzylidene)-thiazolidine-2,4-dione assay.

T1 sequence (P01308 25-54 limits assumed): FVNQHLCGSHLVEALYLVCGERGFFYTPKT
T1 sequence (P01308 90-110 limits assumed): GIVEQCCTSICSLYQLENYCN
T2 sequence (P01308 25-54 limits assumed): as the sequence (P01308 25-54 limits assumed) above

Take `c1ccc(-c2ccc(Cn3ccc4cc(-c5nnn[nH]5)ccc43)cc2)cc1` [1-(4-Phenylbenzyl)-5-(1H-tetrazol-5-yl)-1H-indole]: in series [1] (setting [4]), the Kd was found to be 38 nM. Further, the NPH-insulin crystal size in series [2] is less than 2 μ.
`O=C1NC(=O)/C(=C/c2ccc3cc(O)ccc3c2)S1` [Example 171, 5-(6-Hydroxy-2-naphthylmethylene) thiazolidine-2,4-dione] had a melting point of 310 to 314 °C.
As for `CN(C)c1ccc(C=C2SC(O)=NC2=O)cc1` [TZD, 5-(4-dimethylaminobenzylidene)-thiazolidine-2,4-dione, reference compound], the Kd in series [1] (measured separately, read-out: KTZD) stood at 230 nM.
Regarding `O=C1NC(=O)/C(=C/c2cc3ccccc3[nH]c2=O)S1` [Example 242, 5-(2-Oxo-1,2-dihydroquinolin-3-ylmethylene)thiazolidine-2,4-dione], the melting point is 338 to 347 °C.
Still for that read-out and setting: for `COc1cc(O)cc(OC)c1/C=C1\SC(=O)NC1=O` [Example 234, 5-(4-Hydroxy-2,6-dimethoxybenzylidene)thiazolidine-2,4-dione] the value was 331 to 333 °C.
For the molecule `O=C(O)c1ccc(O)c([N+](=O)[O-])c1` [Example 4H3N, 4-hydroxy-3-nitrobenzoic acid], the Kd in series [3] is 50000 nM.
`Cc1cc(/C=C2\SC(=O)NC2=O)c(C)c2c1[nH]c1ccccc12` [5-(1,4-Dimethyl-9H-carbazol-3-ylmethylene)-thiazolidine-2,4-dione]: the Kd in series [1] (setting [4]) is less than 10 nM. In series [2], the NPH-insulin crystal size is listed as less than 2 μ.
For `Cc1[nH]c2ccccc2c1/C=C1\SC(=O)NC1=O` [5-(2-methyl-1H-indol-3-ylmethylene) thiazolidine-2,4-dione] the same measures were less than 10 nM and 2-6 μ.
With `c1cc(COc2ccc3ccccc3c2)cc(-c2nnn[nH]2)c1` [Example 572, 5-(3-(Naphthalen-2-yloxymethyl)-phenyl)-1H-tetrazole], the melting point is 200 to 202 °C.
`COc1cc(/C=C2\SC(=O)NC2=O)cc(I)c1O` [Example 167, 5-(4-Hydroxy-3-iodo-5-methoxybenzylidene)thiazolidine-2,4-dione]: the melting point turned out to be 256 °C.
Still for that read-out and setting: then `COc1cc(OCc2c(F)cccc2[N+](=O)[O-])cc(OC)c1/C=C1\SC(=O)NC1=O` [Example 237, 5-[4-(2-Fluoro-6-nitrobenzyloxy)-2,6-dimethoxybenzylidene]thiazolidine-2,4-dione], with 255 to 256 °C; and `Cc1cccc(C)c1/C=C1\SC(=O)NC1=O` [Example 235, 5-(2,6-Dimethylbenzylidene)thiazolidine-2,4-dione], with 104 to 105 °C.
In the case of `O=C1NC(=O)/C(=C/c2cccc3ccccc23)S1` [5-Napthalen-1-ylmethylene-thiazolidine-2,4-dione], the Kd in series [1] (setting [4]) came out at 21 nM. The NPH-insulin crystal size in series [2] is reported as 4-10 μ.
The matching figures for `O=C(O)c1cc2cc(Br)ccc2cc1O` [7-Bromo-3-hydroxy-2-napthoic acid]: 264 nM and 5-20 μ.
As for `O=C1NC(=O)C(=Cc2c[nH]c3ccc([N+](=O)[O-])cc23)S1` [Example 199, 5-(5-Nitro-1H-indol-3-ylmethylene)thiazolidine-2,4-dione], the melting point was in the range of 330 to 333 °C.
In the case of `COc1cccc(OC)c1/C=C1\SC(=O)NC1=O` [Example 236, 5-(2,6-Dimethoxybenzylidene)thiazolidine-2,4-dione], the melting point was in the range of 241 to 242 °C.
On the same count and under the same terms, for `O=C1NC(=O)/C(=C/c2cc3ccccc3o2)S1` [Example 238, 5-Benzofuran-2-ylmethylenethiazolidine-2,4-dione] the value was 265 to 266 °C.
For `O=C(O)c1ccc(Cn2c3ccccc3c3cc(-c4nnn[nH]4)ccc32)cc1` [4-[3-(1H-Tetrazol-5-yl)-carbazol-9-ylmethyl]-benzoic acid], the Kd in series [1] (setting [4]) stood at 174 nM. Besides, the NPH-insulin crystal size in series [2] was less than 2 μ.
For `CC(/C=C1\SC(=O)NC1=O)=C\c1ccccc1` [Example 240, 5-(2-Methyl-3-phenylallylidene)thiazolidine-2,4-dione], the melting point was in the range of 203 to 210 °C.
In the case of `O=C1NC(=O)C(Cc2cccc3ccccc23)S1` (centres unmarked) [5-Napthalen-1-ylmethyl-thiazolidine-2,4-dione], the Kd in series [1] (setting [4]) was 99 nM. Besides, the NPH-insulin crystal size in series [2] is on record as 2 μ.
The matching figures for `c1ccc(Cn2c3ccccc3c3cc(-c4nnn[nH]4)ccc32)cc1` [9-Benzyl-3-(1H-tetrazol-5-yl)-9H-carbazole]: 68 nM and 1-3 μ.
Consider `O=C(O)COc1ccc(/C=C2\SC(=O)NC2=O)c2ccccc12` [[4-(2,4-Dioxothiazolidin-5-ylidenemethyl)-naphthalen-1-yloxy]-acetic acid], for which, in series [1] (setting [4]), the Kd is 11 nM. In series [2], the NPH-insulin crystal size was 2-10 μ.
On to `CN(C)c1ccc(/C=C/C=C2\SC(=O)NC2=O)cc1` [Example 239, 5-[3-(4-Dimethylaminophenyl)allylidene]thiazolidine-2,4-dione], for which the melting point fell in the range of 259 to 263 °C.
